Assay results taken from article PMC12655351, “Synthesis and Anticancer Activity Evaluation of New 5-((5-Nitrofuran-2-yl)allylidene)-2-thioxo-4-thiazolidinones” (Pharmaceuticals, 2025).
Several values for one entry are separate records, joined by “and”; a condition that tells them apart may be missing. Equal values may be shown once. Read-outs that look alike come from different tables or passages of the source.

How the values were obtained:
SH SY5Y = test: MTT assay; format: cell-based; conditions: Homo sapiens, 24 h of treatment
Protocol: (§1) The NCI-60 screening protocol utilizes the sulforhodamine B (SRB) assay following 48 h of compound exposure. […] The MTT assay was performed on eleven cancer cell lines: human breast cancer (MDA-MB-231, MCF-7, HCC 1954), human gastric cancer (AGS), human colorectal adenocarcinoma (HT-29, DLD-1, HCT 116), human neuroblastoma (SH SY5Y), and human leukemia (JURKAT, RMPI 8866, K-562) cell lines. The study was conducted in triplicate at the following seven concentrations: 0.62, 1.25, 2.5, 5, 10, 20, and 40 μM.
(§2) The selected cell lines were seeded into 96-well plates and cultured in accordance with the previously described methodology. Then, the cells were treated with all tested compounds and DOX at concentrations of 0.625, 1.25, 2.5, 5.0, 10.0, 20.0, and 40.0 μM for 24 h. A solution of 3-(4,5-dimethyl-2-thiazolyl)-2,5-diphenyl-2H-tetrazolium bromide (Sigma-Aldrich, St. Louis, MO, USA) in phosphate-buffered saline without calcium and magnesium (Corning, Kennebunk, ME, USA) at a concentration of 5 mg/mL was used to carry out MTT assay. After incubation, 20 μL of the prepared MTT solution was added, and then the cells were incubated at 37 °C for two hours. Afterwards, the cells were lysed using 100 μL of lysing buffer (comprising 25 mM HCl, 2% acetic acid, 3% DMF, and 5% SDS, with a pH of 4.7). The absorbance was determined at a wavelength of 570 nm using an Absorbance 96 microplate reader (Byonoy GmbH, Hamburg, Germany).

HCT-116 = test: MTT assay; format: cell-based; conditions: Homo sapiens; HCT-116, 24 h of treatment
Protocol: as §1, §2

MDA-MB-231 = test: MTT assay; format: cell-based; conditions: Homo sapiens; MDA-MB-231, 24 h of treatment
Protocol: as §1, §2

MCF7 = test: NCI-60 SRB screen; conditions: MCF7, 48 h
K-562 = conditions: K-562, 48 h
PC-3 = conditions: PC-3, 48 h
Breast cancer = Breast cancer subpanel
Prostate Cancer [1] = conditions: Prostate Cancer subpanel
Ovarian cancer [2] = conditions: Ovarian cancer subpanel
U251 = test: NCI-60 SRB screen
OVCAR-8 [3] = test system: OVCAR-8
SK-MEL-5 = conditions: for CC50: human
OVCAR-8 [4] = test: cells; conditions: Homo sapiens, OVCAR-8, 48 h
Ovarian cancer [5] = test: cells; conditions: Homo sapiens; for GI50: read-out: MG_MID GI50; for CC50: read-out: MG_MID LC50
[6] = test system: Non-small cell lung cancer; conditions: Non-small cell lung cancer subpanel
LOX IMVI [7] = conditions: 48 h; for growth GP: 10 μM; for CC50: human
ACHN = test: NCI-60 SRB screen; conditions: 48 h; for growth GP: 10 μM; for CC50: read-out: LC50, ACHN, 48 h
MDA-MB-435 = test: cells; conditions: Homo sapiens, MDA-MB-435, 48 h
[8] = test system: panel of 60 cancer cell lines; conditions: for Positive cytostatic effect (ratio of cell lines with GP from 0 to 50 to total number) / Mean growth: 10 μM, 48 h; for Mean growth: one dose; for MG_MID TGI: full panel (last line of Table S2)
DU-145 = conditions: for growth GP: DU-145, 10 μM; for growth GP / CC50: 48 h; for GI50 / TGI: DU-145, 48 h; for CC50: human
T-47D [9] = test: cells; conditions: Homo sapiens, T47D, 48 h; for CC50: read-out: LC50
RPMI-8226 = test: cells; conditions: Homo sapiens, RPMI-8226, 48 h
Renal Cancer = Renal Cancer subpanel
TK-10 = conditions: for growth GP: TK-10, 10 μM; for growth GP / CC50: 48 h; for CC50: human
Prostate Cancer [10] = test: cells; conditions: Homo sapiens, read-out: MG_MID GI50
SK-MEL-2 = test: NCI-60 SRB screen; conditions: SK-MEL-2, 48 h; for CC50: Homo sapiens, read-out: LC50, SK-MEL-2, 48 h
LOX IMVI [11] = test: cells; conditions: Homo sapiens, 48 h; for CC50: read-out: LC50, LOX IMVI, 48 h
NCI-H322M = test: NCI-60 SRB screen; conditions: 48 h; for CC50: read-out: LC50, NCI-H322M, 48 h
HS 578T = conditions: 48 h
T-47D [12] = conditions: 48 h
[13] = Homo sapiens, U-251, 48 h, U251, 48 h
[14] = Homo sapiens, U-251, 48 h, read-out: LC50, U251, 48 h

CC(C(=O)O)N1C(=O)/C(=C/C=C/c2ccc([N+](=O)[O-])o2)SC1=S (stereo not drawn) [2b, 2-((Z)-5-((E)-3-(5-Nitrofuran-2-yl)allylidene)-4-oxo-2-thioxothiazolidin-3-yl)propanoic acid]
IC50 (SH SY5Y): 30600 nM
IC50 (HCT-116): 39000 nM
IC50 (MDA-MB-231): 25400 nM

O=C(O)CCCCCN1C(=O)/C(=C/C=C/c2ccc([N+](=O)[O-])o2)SC1=S [14b, 6-((Z)-5-((E)-3-(5-nitrofuran-2-yl)allylidene)-4-oxo-2-thioxothiazolidin-3-yl)hexanoic acid]
GI50 (MCF7; Homo sapiens): 390 nM
GI50 (MCF7): 440 nM
TGI (MCF7): 1820 nM and 1990 nM
GI50 (UO-31; UO-31, 48 h): 670 nM
TGI (UO-31; UO-31, 48 h): 1850 nM and 2050 nM
CC50 (UO-31; human, 48 h): 4890 nM
GI50 (K-562): 280 nM
TGI (PC-3): 3150 nM and 3300 nM
MG_MID TGI (Breast cancer): 2610 nM
MG_MID TGI (Prostate Cancer [1]): 3130 nM
MG_MID TGI (Ovarian cancer [2]): 2920 nM
GI50 (U251; [13]): 570 nM
CC50 (U251; [14]): 4860 nM
GI50 (U251; U251, 48 h): 340 nM
TGI (U251; U251, 48 h): 1920 nM and 1220 nM
GI50 (OVCAR-8 [3]; OVCAR-8, 48 h): 300 nM
CC50 (OVCAR-8 [3]; human, 48 h): 9710 nM
TGI (SK-MEL-5; SK-MEL-5, 48 h): 1980 nM and 3140 nM
CC50 (SK-MEL-5; 48 h): 6380 nM
GI50 (OVCAR-8 [4]): 570 nM
CC50 (OVCAR-8 [4]; read-out: LC50, OVCAR-8, 48 h): 6430 nM
GI50 (Ovarian cancer [5]): 1110 nM
CC50 (Ovarian cancer [5]): 15600 nM
MG_MID TGI [6]: 3850 nM
growth GP (LOX IMVI [7]; LOX IMVI): -95.58%
GI50 (LOX IMVI [7]; LOX IMVI): 190 nM
TGI (LOX IMVI [7]; LOX IMVI): 420 nM and 390 nM
CC50 (LOX IMVI [7]): 780 nM
growth GP (ACHN): -99.76%
GI50 (ACHN): 1210 nM
TGI (ACHN): 2820 nM and 2460 nM
GI50 (ACHN; Homo sapiens): 1500 nM
CC50 (ACHN; Homo sapiens): 5310 nM
GI50 (MDA-MB-435): 420 nM
CC50 (MDA-MB-435; read-out: LC50, MDA-MB-435, 48 h): 4470 nM
Positive cytostatic effect (ratio of cell lines with GP from 0 to 50 to total number) [8]: 4/55
Mean growth [8]: -67.89%
MG_MID TGI [8]: 3580 nM
IC50 (SH SY5Y): 4110 nM
IC50 (HCT-116): 2110 nM
IC50 (MDA-MB-231): 6610 nM
growth GP (DU-145): -98.04%
GI50 (DU-145): 1590 nM
TGI (DU-145): 2870 nM and 3180 nM
CC50 (DU-145): 6350 nM
CC50 (T-47D [9]): > 100000 nM
GI50 (RPMI-8226): 330 nM
MG_MID TGI (Renal Cancer): 4630 nM
growth GP (TK-10): -95.04%
GI50 (TK-10; TK-10, 48 h): 1850 nM
TGI (TK-10; TK-10, 48 h): 3320 nM and 3470 nM
CC50 (TK-10): 6330 nM
GI50 (Prostate Cancer [10]): 1260 nM
CC50 (SK-MEL-2): 6010 nM
TGI (SK-MEL-2): 2950 nM and 2330 nM
GI50 (LOX IMVI [11]): 200 nM
CC50 (LOX IMVI [11]): 880 nM
GI50 (NCI-H322M): 1820 nM
TGI (NCI-H322M): 3390 nM and 3550 nM
GI50 (NCI-H322M; Homo sapiens): 1680 nM
CC50 (NCI-H322M; Homo sapiens): 6840 nM
GI50 (HS 578T): 790 nM
TGI (HS 578T): 6440 nM and 7760 nM

O=C(O)CCCN1C(=O)/C(=C/C=C/c2ccc([N+](=O)[O-])o2)SC1=S [13b, 4-((Z)-5-((E)-3-(5-Nitrofuran-2-yl)allylidene)-4-oxo-2-thioxothiazolidin-3-yl)butanoic acid]
GI50 (MCF7; Homo sapiens): 350 nM
GI50 (MCF7): 200 nM
TGI (MCF7): 1970 nM and 1580 nM
GI50 (K-562): 90 nM
TGI (K-562): > 100000 nM
GI50 (PC-3): 400 nM
TGI (PC-3): 3100 nM and 2020 nM
MG_MID TGI (Breast cancer): 2150 nM
MG_MID TGI (Prostate Cancer [1]): 2570 nM
MG_MID TGI (Ovarian cancer [2]): 2990 nM
GI50 (U251; [13]): 370 nM
CC50 (U251; [14]): 4230 nM
GI50 (U251; U251, 48 h): 190 nM
CC50 (U251; read-out: LC50, U251, 48 h): 3160 nM
GI50 (OVCAR-8 [3]; OVCAR-8, 48 h): 270 nM
TGI (OVCAR-8 [3]; OVCAR-8, 48 h): 2250 nM and 1240 nM
growth GP (SK-MEL-5; SK-MEL-5, 10 μM, 48 h): -98.67%
GI50 (SK-MEL-5; SK-MEL-5, 48 h): 1210 nM
TGI (SK-MEL-5; SK-MEL-5, 48 h): 1970 nM and 2680 nM
CC50 (SK-MEL-5; 48 h): 5960 nM
GI50 (OVCAR-8 [4]): 460 nM
GI50 (Ovarian cancer [5]): 960 nM
CC50 (Ovarian cancer [5]): 13200 nM
MG_MID TGI [6]: 4480 nM
growth GP (LOX IMVI [7]; LOX IMVI): -96.12%
TGI (LOX IMVI [7]; LOX IMVI): 420 nM and 390 nM
CC50 (LOX IMVI [7]): 810 nM
GI50 (T-47D [12]): 230 nM
growth GP (ACHN): -100.00%
TGI (ACHN): 2210 nM and 1350 nM
CC50 (ACHN; Homo sapiens): 4700 nM
Positive cytostatic effect (ratio of cell lines with GP from 0 to 50 to total number) [8]: 2/55
Mean growth [8]: -76.34%
MG_MID TGI [8]: 4880 nM
IC50 (SH SY5Y): 8410 nM
IC50 (HCT-116): 3970 nM
IC50 (MDA-MB-231): 8730 nM
growth GP (DU-145): -99.43%
GI50 (DU-145): 1150 nM
TGI (DU-145): 2320 nM and 2830 nM
CC50 (DU-145): 7010 nM
GI50 (T-47D [9]; T-47D): 340 nM
CC50 (T-47D [9]): > 100000 nM
GI50 (RPMI-8226): 360 nM
CC50 (RPMI-8226; read-out: LC50): > 100000 nM
MG_MID TGI (Renal Cancer): 2600 nM
growth GP (TK-10): -97.38%
TGI (TK-10; TK-10, 48 h): 3180 nM and 2030 nM
CC50 (TK-10): 4770 nM
GI50 (Prostate Cancer [10]): 820 nM
CC50 (SK-MEL-2): 6120 nM
GI50 (LOX IMVI [11]): 190 nM
CC50 (LOX IMVI [11]): 920 nM
GI50 (NCI-H322M): 1970 nM
TGI (NCI-H322M): 8090 nM and 5500 nM
GI50 (NCI-H322M; Homo sapiens): 2520 nM
CC50 (NCI-H322M; Homo sapiens): 28300 nM
